The text below walks through data of patent publication US20230295200A1 (REGENTS OF THE UNIVERSITY OF MICHIGAN, priority 2022, published 2023).

Each structure is given as a SMILES string.

One assay addresses T1, STAT5A (Homo sapiens, UniProt P42229).
T1 sequence (P42229 1-794): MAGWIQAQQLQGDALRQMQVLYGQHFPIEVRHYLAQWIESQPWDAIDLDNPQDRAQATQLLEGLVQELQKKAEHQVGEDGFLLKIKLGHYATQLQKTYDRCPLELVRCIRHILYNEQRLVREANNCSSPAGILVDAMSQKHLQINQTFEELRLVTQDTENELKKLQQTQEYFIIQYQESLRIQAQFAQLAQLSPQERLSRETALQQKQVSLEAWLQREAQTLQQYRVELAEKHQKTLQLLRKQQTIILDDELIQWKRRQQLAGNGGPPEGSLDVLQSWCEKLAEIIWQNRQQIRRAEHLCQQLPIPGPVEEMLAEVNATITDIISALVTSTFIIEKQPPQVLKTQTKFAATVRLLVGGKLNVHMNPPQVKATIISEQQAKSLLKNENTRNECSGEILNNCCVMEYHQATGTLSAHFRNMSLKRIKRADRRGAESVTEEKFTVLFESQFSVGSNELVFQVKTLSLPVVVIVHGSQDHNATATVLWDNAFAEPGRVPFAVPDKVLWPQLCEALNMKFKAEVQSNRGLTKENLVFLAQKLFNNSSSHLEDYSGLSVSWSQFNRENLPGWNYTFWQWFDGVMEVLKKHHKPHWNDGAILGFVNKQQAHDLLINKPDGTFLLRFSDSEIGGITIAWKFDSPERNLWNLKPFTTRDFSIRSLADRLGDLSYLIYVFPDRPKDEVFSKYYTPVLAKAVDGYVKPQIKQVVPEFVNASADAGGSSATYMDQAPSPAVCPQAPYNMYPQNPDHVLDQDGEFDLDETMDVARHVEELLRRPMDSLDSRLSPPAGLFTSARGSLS
The assay can be described thus: Fluorescence polarization (FP) binding assay, STAT5A. Conditions: FP competition, 5 nM fluorescein-labeled tracer, 200 nM protein, PBS pH7.4. The gist of the method: (§1)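 Fluorescence polarization is read after STAT5 or STAT6 protein (200 nM) and a fluorescein-labeled tracer (5 nM) equilibrate for 1 h at room temperature in DTT-containing PBS pH 7.4 with BGG and Tween-20. Inhibition constants are obtained by nonlinear curve fitting.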
For orientation: In fluorescence polarisation assays a small probe gives low polarisation when free and higher when bound to something large.

Another assay has as its target T2, STAT6 protein (Homo sapiens, UniProt P42226).
T2 sequence (P42226 1-847): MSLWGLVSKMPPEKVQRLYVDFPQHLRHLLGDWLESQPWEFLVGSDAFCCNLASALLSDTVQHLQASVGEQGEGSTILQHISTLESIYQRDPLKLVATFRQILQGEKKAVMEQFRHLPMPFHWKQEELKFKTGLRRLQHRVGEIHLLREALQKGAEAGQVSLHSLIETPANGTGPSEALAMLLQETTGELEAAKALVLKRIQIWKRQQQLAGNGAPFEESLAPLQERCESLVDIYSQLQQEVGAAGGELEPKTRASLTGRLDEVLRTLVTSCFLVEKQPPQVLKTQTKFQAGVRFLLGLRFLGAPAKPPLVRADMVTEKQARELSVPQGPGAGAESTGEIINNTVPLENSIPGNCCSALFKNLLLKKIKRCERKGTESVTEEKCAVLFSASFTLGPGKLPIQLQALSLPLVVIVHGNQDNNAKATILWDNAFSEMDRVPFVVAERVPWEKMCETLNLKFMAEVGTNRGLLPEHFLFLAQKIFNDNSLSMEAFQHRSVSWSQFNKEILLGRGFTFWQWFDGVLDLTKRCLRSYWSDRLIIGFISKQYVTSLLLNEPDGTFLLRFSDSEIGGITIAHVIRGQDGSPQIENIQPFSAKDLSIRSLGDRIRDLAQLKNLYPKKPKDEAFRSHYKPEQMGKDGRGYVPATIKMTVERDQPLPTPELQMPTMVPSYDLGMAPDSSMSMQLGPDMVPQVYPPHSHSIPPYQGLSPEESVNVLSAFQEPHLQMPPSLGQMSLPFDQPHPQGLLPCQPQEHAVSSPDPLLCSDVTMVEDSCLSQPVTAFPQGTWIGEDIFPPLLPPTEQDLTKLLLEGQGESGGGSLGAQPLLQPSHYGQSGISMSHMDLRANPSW
The assay can be described thus: Fluorescence polarization (FP) binding assay, STAT6. To be noted: FP competition, 5 nM fluorescein-labeled tracer, 200 nM protein, PBS pH7.4; read-out: Binding STAT6. The gist of the method: as §1

Turning to `CC1(c2ccc(Cl)cc2)CN(C(=O)[C@@H]2CCCN2C(=O)[C@@H](NC(=O)c2cc3cc(C(F)(F)P(=O)(O)O)ccc3s2)C(C)(C)C)CCO1` (stereo partly drawn) [Compound 101, ((2-(((2S)-1-((2S)-2-(2-(4-chlorophenyl)-2-methylmorpholine-4-carbonyl)pyrrolidin-1-yl)-3,3-dimethyl-1-oxobutan-2-yl)carbamoyl)benzo[b]thiophen-5-yl)difluoromethyl)phosphonic acid], the Ki at STAT5A was > 10 µM; at STAT6 protein, 1 to 10 µM.

`CC(C)(C)[C@H](NC(=O)c1cc2cc(C(F)(F)P(=O)(O)O)ccc2s1)C(=O)N1CCC[C@H]1C(=O)N1CCOC(c2ccc(F)cc2)C1` (stereo partly drawn) [Compound 102, (difluoro(2-(((2S)-1-((2S)-2-(2-(4-fluorophenyl)morpholine-4-carbonyl)pyrrolidin-1-yl)-3,3-dimethyl-1-oxobutan-2-yl)carbamoyl)benzo[b]thiophen-5-yl)methyl)phosphonic acid]: the Ki was > 10 µM at STAT5A and 0.1 to 1 µM on STAT6 protein.

Take `CC(C)(C)[C@H](NC(=O)c1cc2cc(C(F)(F)P(=O)(O)O)ccc2s1)C(=O)N1CCC[C@H]1C(=O)N1CCOC(c2cccc(Cl)c2)C1` (stereo partly drawn) [Compound 103, ((2-(((2S)-1-((2S)-2-(2-(3-chlorophenyl)morpholine-4-carbonyl)pyrrolidin-1-yl)-3,3-dimethyl-1-oxobutan-2-yl)carbamoyl)benzo[b]thiophen-5-yl)difluoromethyl)phosphonic acid]: the Ki on STAT5A and at STAT6 protein was 1 to 10 µM each time.

Turning to `CC(C)(C)[C@H](NC(=O)c1cc2cc(C(F)(F)P(=O)(O)O)ccc2s1)C(=O)N1CCC[C@H]1C(=O)N1CCOC(c2cc(F)c(Cl)cc2Cl)C1` (stereo partly drawn) [Compound 104, ((2-(((2S)-1-((2S)-2-(2-(2,4-dichloro-5-fluorophenyl)morpholine-4-carbonyl)pyrrolidin-1-yl)-3,3-dimethyl-1-oxobutan-2-yl)carbamoyl)benzo[b]thiophen-5-yl)difluoromethyl)phosphonic acid], the Ki at STAT5A and on STAT6 protein was 1 to 10 µM throughout.

On to `Cc1ccccc1C1CCCN(C(=O)[C@@H]2CCCN2C(=O)[C@@H](NC(=O)c2cc3cc(C(F)(F)P(=O)(O)O)ccc3s2)C(C)(C)C)C1` (stereo partly drawn) [Compound 105, ((2-(((2S)-3,3-dimethyl-1-oxo-1-((2S)-2-(3-(o-tolyl)piperidine-1-carbonyl)pyrrolidin-1-yl)butan-2-yl)carbamoyl)benzo[b]thiophen-5-yl)difluoromethyl)phosphonic acid], for which the Ki at STAT5A was > 10 µM; at STAT6 protein, 1 to 10 µM.

`Cc1ccccc1C1CN(C(=O)[C@@H]2CCCN2C(=O)[C@@H](NC(=O)c2cc3cc(C(F)(F)P(=O)(O)O)ccc3s2)C(C)(C)C)CCO1` (stereo partly drawn) [Compound 106, ((2-(((2S)-3,3-dimethyl-1-oxo-1-((2S)-2-(2-(o-tolyl)morpholine-4-carbonyl)pyrrolidin-1-yl)butan-2-yl)carbamoyl)benzo[b]thiophen-5-yl)difluoromethyl)phosphonic acid]: the Ki on STAT5A lay within 1 to 10 µM; on STAT6 protein it was 0.1 to 1 µM.

Regarding `Cc1ccc(C2CN(C(=O)[C@@H]3CCCN3C(=O)[C@@H](NC(=O)c3cc4cc(C(F)(F)P(=O)(O)O)ccc4s3)C(C)(C)C)CCO2)c(C)c1` (stereo partly drawn) [Compound 107, ((2-(((2S)-1-((2S)-2-(2-(2,4-dimethylphenyl)morpholine-4-carbonyl)pyrrolidin-1-yl)-3,3-dimethyl-1-oxobutan-2-yl)carbamoyl)benzo[b]thiophen-5-yl)difluoromethyl)phosphonic acid], the Ki was > 10 µM at STAT5A and 1 to 10 µM at STAT6 protein.

As for `Cc1cc(C2CN(C(=O)[C@@H]3CCCN3C(=O)[C@@H](NC(=O)c3cc4cc(C(F)(F)P(=O)(O)O)ccc4s3)C(C)(C)C)CCO2)ccc1F` (stereo partly drawn) [Compound 108, (difluoro(2-(((2S)-1-((2S)-2-(2-(4-fluoro-3-methylphenyl)morpholine-4-carbonyl)pyrrolidin-1-yl)-3,3-dimethyl-1-oxobutan-2-yl)carbamoyl)benzo[b]thiophen-5-yl)methyl)phosphonic acid], the values for the Ki at STAT5A and on STAT6 protein were > 10 µM and 1 to 10 µM, respectively.

`CC(C)(C)[C@H](NC(=O)c1cc2cc(C(F)(F)P(=O)(O)O)ccc2s1)C(=O)N1CCC[C@H]1C(=O)N1CCOC(c2ccccc2F)C1` (stereo partly drawn) [Compound 109, (difluoro(2-(((2S)-1-((2S)-2-(2-(2-fluorophenyl)morpholine-4-carbonyl)pyrrolidin-1-yl)-3,3-dimethyl-1-oxobutan-2-yl)carbamoyl)benzo[b]thiophen-5-yl)methyl)phosphonic acid]: the Ki was > 10 µM at STAT5A and 0.1 to 1 µM at STAT6 protein.

`CC(C)(C)[C@H](NC(=O)c1cc2cc(C(F)(F)P(=O)(O)O)ccc2s1)C(=O)N1CCC[C@H]1C(=O)N1CCOC(c2ccc(F)cc2F)C1` (stereo partly drawn) [Compound 110, ((2-(((2S)-1-((2S)-2-(2-(2,4-difluorophenyl)morpholine-4-carbonyl)pyrrolidin-1-yl)-3,3-dimethyl-1-oxobutan-2-yl)carbamoyl)benzo[b]thiophen-5-yl)difluoromethyl)phosphonic acid]: the Ki on STAT5A is > 10 µM; on STAT6 protein, 1 to 10 µM.

In the case of `CC(C)(C)[C@H](NC(=O)c1cc2cc(C(F)(F)P(=O)(O)O)ccc2s1)C(=O)N1CCC[C@H]1C(=O)N1CCOC(c2ccc(F)c(F)c2)C1` (stereo partly drawn) [Compound 111, ((2-(((2S)-1-((2S)-2-(2-(3,4-difluorophenyl)morpholine-4-carbonyl)pyrrolidin-1-yl)-3,3-dimethyl-1-oxobutan-2-yl)carbamoyl)benzo[b]thiophen-5-yl)difluoromethyl)phosphonic acid], the Ki on STAT5A is > 10 µM; on STAT6 protein, 0.1 to 1 µM.

With `CC(C)(C)[C@H](NC(=O)c1cc2cc(C(F)(F)P(=O)(O)O)ccc2s1)C(=O)N1CCC[C@H]1C(=O)N1CCOC(c2ccccc2Cl)C1` (stereo partly drawn) [Compound 112, ((2-(((2S)-1-((2S)-2-(2-(2-chlorophenyl)morpholine-4-carbonyl)pyrrolidin-1-yl)-3,3-dimethyl-1-oxobutan-2-yl)carbamoyl)benzo[b]thiophen-5-yl)difluoromethyl)phosphonic acid], the Ki at STAT5A is > 10 µM; on STAT6 protein, 0.1 to 1 µM.

For `CC(C)(C)[C@H](NC(=O)c1cc2cc(C(F)(F)P(=O)(O)O)ccc2s1)C(=O)N1CCC[C@H]1C(=O)N1CCOC(c2ccc(F)c(Cl)c2)C1` (stereo partly drawn) [Compound 113, ((2-(((2S)-1-((2S)-2-(2-(3-chloro-4-fluorophenyl)morpholine-4-carbonyl)pyrrolidin-1-yl)-3,3-dimethyl-1-oxobutan-2-yl)carbamoyl)benzo[b]thiophen-5-yl)difluoromethyl)phosphonic acid], the Ki fell in the range of 1 to 10 µM on STAT5A and 0.1 to 1 µM on STAT6 protein.

As for `CC(C)(C)[C@H](NC(=O)c1cc2cc(C(F)(F)P(=O)(O)O)ccc2s1)C(=O)N1CCC[C@H]1C(=O)N1CCOC(c2ccc(Cl)c(Cl)c2)C1` (stereo partly drawn) [Compound 114, ((2-(((2S)-1-((2S)-2-(2-(3,4-dichlorophenyl)morpholine-4-carbonyl)pyrrolidin-1-yl)-3,3-dimethyl-1-oxobutan-2-yl)carbamoyl)benzo[b]thiophen-5-yl)difluoromethyl)phosphonic acid], the results for the Ki on STAT5A and at STAT6 protein were 1 to 10 µM and 0.1 to 1 µM, respectively.
